Where “and” joins values, the source holds several entries; their conditions need not be identical. Equal entries are not always repeated. Entries after “also recorded” stand apart in the source; their conditions may differ. Where two headings read alike, the source gives them in different places.
Tests used:
[1] = target: LAMTOR5 (Homo sapiens, UniProt O43504); assay: Competitive isoTOP-ABPP with purified mTORC1, Rag GTPase and Lamtor complexes; format: binding
Text: To identify the specific druggable hotspot targeted by YP 1-44 within the TORC1 complex, we performed a chemoproteomic study using isotopic tandem orthogonal proteolysis-enabled activity-based protein profiling (isoTOP-ABPP). IsoTOP-ABPP uses reactivity-based chemical probes to profile proteome-wide reactive, functional, and druggable hotspots directly in complex proteomes. When used in a competitive manner, small-molecule covalent ligands can be competed against the binding of reactivity-based probes to facilitate the identification of druggable hotspots targeted by lead covalent ligands (5-7) (FIG. 4A). Here, we pre-treated human purified mTORC1, Rag GTPase and Lamtor complexes with either vehicle or YP 1-44, and subsequently labeled this reconstituted system with a broad cysteine-reactive probe iodoacetamide-alkyne (IA-alkyne). Any accessible cysteine druggable hotspot would be labeled with the IA-alkyne probe in the vehicle-treated control, but the site bound by YP 1-44 would no longer accessible to IA-alkyne binding. Subsequently, we used copper-catalyzed azide-alkyne cycloaddition to append an isotopically light (for control) or heavy (for YP 1-44-treated) biotin-azide tag bearing a TEV protease recognition peptide onto probe-labeled proteins, upon which we combined the control and treated proteomes in a 1:1 ratio, followed by avidin-enrichment, tryptic digestion, and elution of probe-modified tryptic peptides by TEV protease. The resulting peptides were analyzed by LC-LC/MS/MS and light-to-heavy ratios of probe-modified peptides were quantified. We identified two cysteines within LAMTOR5, C148 and C23 that were labeled with ratios of 0.51 and 3.7, respectively. If YP 1-44 bound to a particular cysteine, we would expect a higher (>2) light-to-heavy ratio.
IsoTOP-ABPP analyses were performed using a modified version of our previously reported method (PMID 28352901, 28186401). We pre-treated human purified mTORC1, Rag GTPase and Lamtor complexes (5 micrograms each) with DMSO vehicle or YP 1-44 (50 μM) for 30 min at 37° C. in phosphate-buffered saline (PBS), and then labeled with IA-alkyne (100 μM) for 1 h at room temperature. They were subsequently treated with isotopically light (control) or heavy (treated) TEV-biotin (100 μM) and copper-catalyzed azide-alkyne cycloaddition (CuAAC). For analysis of cysteine reactivity in primary colorectal tumor tissue, tumors were pooled and incubated with either 100 μM IA-alkyne and isotopically heavy TEV-biotin or 10 μM IA-alkyne and isotopically light TEV-biotin followed by CuAAC. Proteins were precipitated over one hour and pelleted by centrifugation at 6500×g. Proteins were washed 3 times with cold methanol then denatured and resolubilized by heating in 1.2% SDS/PBS to 85° C. for 5 min. Insoluble components were precipitated by centrifugation at 6500×g and soluble proteome was diluted in 5 ml PBS, for a final concentration of 0.2% SDS. Labeled proteins were bound to avidin-agarose beads (170 μL resuspended beads/sample, Thermo Pierce) while rotating overnight at 4° C. Bead-linked proteins were enriched by washing three times each in PBS and water, then resuspended in 6 M urea/PBS (Sigma-Aldrich) and reduced in dithiothreitol (1 mM, Sigma-Aldrich), alkylated with iodoacetamide (18 mM, Sigma-Aldrich), then washed and resuspended in 2 M urea/PBS with 1 mM calcium chloride and trypsinized overnight with 0.5 μg/μl sequencing grade trypsin (Promega). […]

[2] = system: mTOR; assay: Immunofluorescence of mTOR and LAMP2 in HEK-293A cells; format: cell-based; conditions: 2 h
Procedure: (§1) FIGS. 6A-6D. CC 1-44 inhibits mTORC1 signaling and activates autophagy. (FIG. 6A) Visual IP experiment monitoring binding of GFP-RagB to RFP-tagged, bead-bound Lamtor complex. […] (FIG. 6B) Immunofluorescence for endogenous RagA and LAMP2 in HEK-293A cells treated with DMSO, YP 1-44 or CC 1-44 for 2 h. […] (FIG. 6C) Immunofluorescence for endogenous mTOR and LAMP2 in HEK-293A cells treated with DMSO or CC 1-44 for 2 h. […] (FIG. 6D) Immunoblotting for autophagic markers LC3b and p62 from HEK-293A cells treated with DMSO (lane 1) or CC 1-44 (lane 3) for 2 h.
(§2) Next, we investigated the mechanism of mTORC1 inhibition by CC-1-44 using visual IP and immunofluorescence. […] Indeed, when we visualized RagA and RagC localization in CC 1-44-treated cells, their localization to LAMP2-positive lysosomes was increased, not decreased as for YP 1-44 (FIG. 6B). This observation pointed to a different mechanism for mTORC1 inactivation by CC 1-44. Rather than disrupting the integrity of the LAMTOR-Rag assembly, CC 1-44 prevents its activation, causing it to strongly accumulate at the lysosome in a conformation that is unable to bind to mTORC1.

[3] = system: mTORC1; assay: mTORC1 signaling in HeLa cells by immunoblotting; format: cell-based; conditions: for mTORC1-mediated signaling (p-ULK1, pS6K1, p-4E-BP1): amino acid stimulation
Procedure: HeLa cells were subjected to starvation/refeeding protocols as described in the previous section, then lysed in ice-cold lysis buffer (150 mM NaCl, 20 mM HEPES [pH 7.4], 2 mM EDTA, 0.3% CHAPS or 1% Triton X-100, and one tablet of EDTA-free protease inhibitors per 50 ml). Cell lysates were cleared by centrifugation at 13,000 rpm for 10 minutes in a microfuge. Samples were normalized to a total concentration of 1 mg/mL protein and prepared using sample buffer at 1×, then boiled for 5 minutes at 95 C. Samples were loaded onto 10% or 12% SDS-Page gels, and analyzed by immunoblotting.
Several of these compounds were also directly tested for their ability to inhibit mTORC1 signaling in immunoblotting-based assays. […] Thus, we pursued CC 1-44 for further characterization.

[4] = system: RagA and RagC; assay: Immunofluorescence of Rag GTPases and LAMP2 in HEK-293A cells; format: cell-based; conditions: 2 h
Procedure: as §1, §2

[5] = system: Hela whole cell proteome; assay: Gel-based ABPP of IA-alkyne cysteine reactivity in Hela whole cell proteome
Text: Thus, we performed medicinal chemistry to optimize the potency and selectivity of our initial hits by addition of further bulk to the core YP 1-44 scaffold (FIGS. 9A-9C; FIG. 5B). We initially screened these compounds against both LAMTOR5 and the Ragulator complex using gel-based ABPP methods competing the binding of these YP 1-44 analogs against IA-alkyne labeling of these proteins (FIG. 5C, FIG. 9). We also tested these compounds against Hela cell whole proteome cysteine reactivity to get initial read-outs of proteome-wide selectivity (FIGS. 9A-9C, FIG. 5D).

[6] = compound 50 μM, IA-alkyne 100 μM, average of n=4

| SMILES | LAMTOR5 cysteines targeted (isoTOP-ABPP) [1] | LAMTOR5 cysteines targeted (isoTOP-ABPP) ([1]; listed as CC-1-44) | mTOR/mTORC1 localization to lysosomes [2] | phosphorylation of canonical mTORC1 substrates S6K1, 4E-BP1 and ULK1 ([3]; 10 μM) | potency of mTORC1 blockade relative to YP 1-44 ([3]; immunoblotting) | RagA and RagC localization to LAMP2-positive lysosomes [4] | proteome-wide selectivity (displacement of IA-alkyne cysteine reactivity) [5] | isoTOP-ABPP light-to-heavy ratio, LAMTOR5 C23 [1, 6] | isoTOP-ABPP light-to-heavy ratio, LAMTOR5 C148 [1, 6] | mTORC1-mediated signaling (p-ULK1, pS6K1, p-4E-BP1) [3] | mTORC1-mediated signaling (p-ULK1, pS6K1, p-4E-BP1) ([3]; listed as YP1-44) |
| --- | --- | --- | --- | --- | --- | --- | --- | --- | --- | --- | --- |
| C=CC(=O)N1CCc2c(OCc3cc(C(F)(F)F)cc(C(F)(F)F)c3)cccc21 [CC 1-44] | modified C23 and C148 in LAMTOR5 | target C23 and C148 of LAMTOR5 | induces dissociation of mTOR from lysosomes; also recorded: completely dispersed from lysosomes | completely inhibited | potency comparable to YP 1-44 | increased RagA clustering on lysosomes | selectivity at up to 1 mM; also recorded: apparent selectivity up to 1 mM |  |  |  |  |
| C=CC(=O)n1ccc2ccccc21 [YP 1-44] | target C23 and C148 of LAMTOR5; also recorded: C23 of LAMTOR5 was the primary site; also recorded: modified C23 and C148 in LAMTOR5 |  | completely dispersed from lysosomes |  |  | causes RagA dissociation from Lamtor; also recorded: decreased | non-selectivity at 100 μM and above; also recorded: not sufficiently selective at higher concentrations (>100 μM) | > 3 and 3.7 | 0.51 | completely inhibited | suppresses mTORC1 activation by amino acids |
